Assay results as given in patent US20230375528A1, “SCREENING METHOD FOR THE IDENTIFICATION OF NOVEL THERAPEUTIC COMPOUNDS” (European Molecular Biology Laboratory, priority 2020, published 2023).

What was measured:
recombinant human ENO1 = recombinant human ENO1 (Homo sapiens, UniProt P06733); test: competition electromobility shift assay (EMSA) with recombinant human ENO1; format: binding; details: labelled PABPC1 target RNA probe, metabolite as competitor
Procedure: Schematic of ENO1's binding profile as identified by eCLIP relative to the input control used for the identification of target and control sites. Every line represents an accumulation of crosslink sites at an individual nucleotide. b. Overlay of1H,15N-HSQC spectra of free ENO1 and ENO1 incubated with twofold excess of RNA (FTH1 18-mer start, black). Full titration points (in 1:0.1/0.2/0.4/0.8/1.2/2 ratios) for some residues are shown in insets. c. Comparative electromobility shift assay (EMSA) for target versus control RNA using radioactively labelled PABPC1 target 35-mer as a probe and unlabelled competitor RNA from either the target or control region as indicated in a. d. Inhibition constants (Ki) for target and control RNAs for the binding to ENO1wt (n=3). The Ki was calculated using a non-linear fitting with least squares regression.
Enzymatic activity assay of recombinant human ENO1 with increasing enzyme concentrations exposed to different control and target RNAs (constant conc. 100 nM). b. Measurement of recombinant ENO1wt activity with increasing concentrations of control and target PABPC1 RNA (n=3). The standard deviation is given and the statistically significant differences were detected using two-way ANOVA and Sidak-correction for multiple comparison testing. c. Inhibition constants (Ki) for target and control RNAs for the binding to ENO1down determined by competitive EMSA (n=3). The Ki was calculated using a non-linear fitting with least squares regression. Measurement of recombinant ENO1down activity with increasing concentrations of control and target PABPC1 RNA (n=3). e. EMSA with recombinant human ENO1 and a labelled PABPC1 target RNA probe in competition with substrate of the forward (2-phosphoglycerate) and reverse reaction (phosphoenol pyruvate) or a control glycolytic metabolite (3-phosphoglycerate). f. Quantification of replicates for the experimental setup in e, including the inhibitor constants (n=3). The Ki was calculated using a non-linear fitting with least squares regression. […]

RNA = test: PNK assay of Flag-tagged ENO1 variants in HeLa cells; format: cell-based, human; details: Flag-tagged ENO1 variant
Source text: A. Immunoprecipitation (anti-FLAG) and PNK assay of transiently expressed ENO1-Flag-HA proteins. […] B. Representative image of a proximity ligation assay (RNA-PLA) for ENO1wt with its mRNA target FTH1. ENO1 is being detected using an anti-FLAG antibody and the endogenous ENO1 is knocked down using siRNAs. The PLA signal is presented as a maximal projection of a Z-stack (10 pictures for 10 μm stack). Pictures for the DAPI (nuclear staining) and cellular outline (grey) are taken in one plane. The scale bar is equivalent to 20 μm. C. Representative image of an RNA-PLA for ENO1down with its mRNA target FTH1. D. Representative image of an RNA-PLA for ENO1up with its mRNA target FTH1. E. Quantification of RNA-PLA signals as dots per cell from three biological replicates with at least 30 cells in total. Statistically significant differences were detected using one-way ANOVA and Tukey-correction for multiple comparison testing. F. Immunofluorescent staining for ENO1wt, ENO1down and ENO1up in transfected HeLa cells using an anti-FLAG antibody, an anti-ENO1 antibody and DAPI. The scale bar is equivalent to 20 μm. G. Representative image of a control RNA-PLA for ENO1wt without the addition of a biotinylated probe. ENO1 is being detected using an anti-FLAG antibody and the endogenous ENO1 is knocked down using siRNAs. The RNA-PLA signal is presented as a maximal projection of a Z-stack (10 pictures for 10 μm stack). Pictures for the DAPI (nuclear staining) and cellular outline (grey) are taken in one plane. The scale bar is equivalent to 20 μm. H. Quantification of RNA-PLA signal of endogenous ENO1 with FTH1 mRNA as dots per cell from three replicates with at least 30 cells in total, comparing samples without probe, cells treated with control siRNA and ENO1 siRNA. Statistically significant differences were detected using one-way ANOVA and Tukey-correction for multiple comparison testing.
A. PNK assay of ENO1 in HeLa cells after a 16-hour treatment with the histone deacetylation (HDAC) inhibitor, sodium butyrate, with concentrations ranging from 2.5-10 mM. Western blotting was performed for ENO1 and using an antibody for acetylated lysine (acetyl-K). B. Western blot for SIRT2 and ENO1 after siRNA-mediated knockdown of SIRT2 in HeLa cells. C. Immunoprecipitation of ENO1 from siControl or siSIRT2-treated HeLa cells. Western blotting was performed for ENO1 and acetylated lysine (acetyl-K). D. Representative PNK assays for FLAG-tagged ENO1wt, ENO1up and ENO1down in HeLa cells after siRNA-mediated knockdown of SIRT2. Western blotting was performed for the FLAG-tagged ENO1 variants, SIRT2 to assess the knock-down efficiency, and Nucleolin as a loading control. E. Quantification of three biological replicates of the experimental setup in D. RNA binding as detected by the autoradiograph was normalized to the FLAG immunoprecipitation efficiency. Statistically significant differences were detected using two-way ANOVA and Sidak-correction for multiple comparison testing (SD, n=3). F. In vitro deacetylation assay coupled with mass spectrometry using recombinant SIRT2 wildtype or the enzymatically dead mutant SIRT2 H187Y and in vitro acetylated ENO1 wildtype. […] G. PNK assay of ENO1 in HeLa cells after a 24-hour treatment with 0.1% DMSO or the SIRT2 inhibitor, SirReal2 at a 12.5 μM. Western blotting was performed for ENO1 and nucleolin. H. PNK assay of ENO1 in HeLa cells after a 24-hour treatment with 0.1% DMSO or the SIRT2 inhibitor, Thiomyristoyl at a 10 μM. Western blotting was performed for ENO1 and nucleolin. I. Representative PNK assay for FLAG-tagged ENO1wt, ENO1up, ENO1down and an acetylation-mimicking version of the ENO1up mutant (ENO1KtoQ) in HeLa cells. Western blotting was performed for the FLAG-tagged ENO1 variants and Nucleolin as a loading control. J. Quantification of three biological replicates of the experimental setup in […]. RNA binding as detected by the autoradiograph was normalized to the FLAG immunoprecipitation efficiency. […]

recombinant human ENO1, sequence (P06733 whole entry): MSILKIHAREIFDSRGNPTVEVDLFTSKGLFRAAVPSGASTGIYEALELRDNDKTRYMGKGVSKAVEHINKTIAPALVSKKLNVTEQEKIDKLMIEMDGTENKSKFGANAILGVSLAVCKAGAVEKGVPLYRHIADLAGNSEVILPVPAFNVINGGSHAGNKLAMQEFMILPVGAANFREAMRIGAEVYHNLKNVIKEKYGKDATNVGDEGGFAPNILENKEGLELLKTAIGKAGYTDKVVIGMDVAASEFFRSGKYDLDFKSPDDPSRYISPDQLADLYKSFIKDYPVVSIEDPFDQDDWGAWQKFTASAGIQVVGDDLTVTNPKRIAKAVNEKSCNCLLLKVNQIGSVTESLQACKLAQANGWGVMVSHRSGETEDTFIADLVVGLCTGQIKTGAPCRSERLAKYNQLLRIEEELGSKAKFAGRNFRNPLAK

Compound: C=C(OP(=O)(O)O)C(=O)O [PEP, phosphoenolpyruvate]
- competition with RNA for ENO1's binding (recombinant human ENO1): compete

Compound: ENO1KtoQ: acetylation-mimicking ENO1 mutant, K89, K92 and K105 changed to glutamine
- RNA binding compared to ENO1wt (PNK assay) (RNA): same enhancement of RNA binding as ENO1up

Compound: O=C(O)[C@@H](CO)OP(=O)(O)O [2-PG, 2-phosphoglycerate]
- competition with RNA for ENO1's binding (recombinant human ENO1): compete

Compound: O=C(O)[C@H](O)COP(=O)(O)O [3-PG, 3-phosphoglycerate]
- competition with RNA for ENO1's binding (recombinant human ENO1): fails to compete
